Laboratory results from patent publication US8071540B2, “Virus derived antimicrobial peptides” (priority 2007, dated 2011).
Where no end group is shown, it is not given here.

Test system: Burkholderia cepacia
Assay type: cell-based
Conditions: 25 μM peptide, organisms surviving, FIG. 8

RWIRVVQRWCRAIRHIWRRIRQGLRRWLRVV [WLSA-5, RWIRVVQRWCRAIRHIWRRIRQGLRRWLRVV]
killing of B. cepacia genomovars compared with LL37: equal to or better than LL-37 at killing all bacterial strains
